Where a name gives a salt, the structure may show the parent alone. Read-outs that look alike come from different tables or passages of the source. Each block holds one compound with its values, some of them ahead of it.
Target: T1, Rat brain protein farnesyltransferase (Rattus norvegicus, UniProt Q02293+Q04631)
T1 construct: The enzyme is purified according to Reiss, Y., et al., Cell, 62: 81-88 (1990), utilizing steps one through three; from tissue; host or cells: rat brain
Experiment: In vitro inhibition of protein farnesyltransferase, Amersham scintillation proximity assay with biotin-K Ras B fragment
Assay type: biochemical
Conditions: for inhibition at 0.01 µM: read-out: % inhibition at 1 × 10^−8 M; for inhibition at 1 µM: read-out: % inhibition at 1 × 10^−6 M; for inhibition at 10 µM: compound at 1 × 10^−5 M (Table 1)
Source text: The ability of the compounds of the invention to inhibit protein farnesyltransferase or protein geranylgeranyltransferase can be measured according to the method of Moores, et al., J. Biol. Chem. 266: 14603 (1991) or the method of Vogt, et al., J. Biol. Chem. 270:660-664 (1995). In addition, procedures for determination of the inhibition of farnesylation of the oncogene protein Ras are described by Goldstein, et al., J. Biol. Chem., 266:15575-15578 (1991) and by Singh in U.S. Pat. No. 5,245,061.
In addition, in vitro inhibition of protein farnesyltransferase may be measured by the following procedure. Rat brain protein farnesyltransferase activity is measured using an Amersham Life Science commercial scintillation proximity assay kit and substituting a biotin-K Ras B fragment (biotin-[…]Ue-Met-CO2H), 0.1 mM final concentration, for the biotin-lamin substrate provided by Amersham. The enzyme is purified according to Reiss, Y., et al., Cell, 62: 81-88 (1990), utilizing steps one through three. […]
The % inhibition of protein farnesyltransferase was determined for representative compounds of the invention.

[1] = Inhibition of farnesyltransferase, compound at 1 × 10^−6 M (Table 2)
[2] = read-out: % inhibition at 1 × 10^−7 M
[3] = Inhibition of farnesyltransferase, compound at 1 × 10^−8 M (Table 4)
[4] = Inhibition of farnesyltransferase

Compound: CSCC[C@H](NC(=O)c1ccc(/C=C/c2cnccc2C(O)(c2ccccc2)c2ccccc2)cc1-c1ccccc1C)C(=O)O [Example 805, Lithium Salt]
inhibition at 0.01 µM: 96%

Compound: CSCC[C@H](NC(=O)c1ccc(C=Cc2ccc(Oc3ccccc3)nc2)cc1-c1ccccc1C)C(=O)O [Example 800, N-[4-(2-(6-Phenyloxypyrid-3-yl)ethen-1-yl)-2-(2-methylphenyl)benzoyl]methionine Lithium Salt]
inhibition at 0.1 µM [2]: 74%

Compound: CSCC[C@H](NC(=O)c1ccc(COc2cccnc2)cc1-c1ccccc1C)C(=O)NS(=O)(=O)c1ccccc1 [Example 253, [4-(3-Pyridyloxymethyl)-2-(2-methylphenyl)benzoyl]methionine Phenylsulfonimide]
inhibition at 1 µM [1]: 99%

Compound: CSCC[C@H](NC(=O)c1ccc(CCn2ccnc2)cc1-c1ccccc1C)C(=O)O [Example 279, {4-[2-(1H-1-Imidazolyl)ethyl]-2-(2-methylphenyl)benzoyl}methionine Sodium Salt]
inhibition at 1 µM: 99%

Compound: CSCC[C@H](NC(=O)c1ccc(/C=C/c2cnccc2C(O)C2CCCCC2)cc1-c1ccccc1C)C(=O)O (stereo partly drawn) [Example 486, N-[4-(2-(4-(1-Cyclohexyl)hydroxmethyl)pyrid-3-ylethen-1-yl)-2-(2-methylphenyl)benzoyl]methionine Lithium Salt]
inhibition at 0.1 µM (Inhibition of farnesyltransferase, compound at 1 × 10^−7 M (Table 3), read-out: % inhibition at 1 × 10^−7 M): 97%

Compound: CSCC[C@H](NC(=O)c1ccc(COc2cccnc2)cc1-c1ccccc1)C(=O)OCc1oc(=O)oc1C [Example 326, [4-(3-Pyridyloxymethyl)-2-phenylbenzoyl]methionine O-Dimethylvinylene Carbonate Ester]
% inhibition at 1 × 10^−6 M [1]: 91%

Compound: CSCC[C@H](NC(=O)c1ccc(CNCc2c[nH]cn2)cc1-c1ccccc1C)C(=O)O [Example 954, N-[4-(Imidazol-4-ylmethylaminomethyl)-2-(2-methylphenyl)benzoyl]methionine]
inhibition at 0.01 µM [3]: > 50%

Compound: CSCC[C@H](NC(=O)c1ccc(/C=C/c2cncc(Br)c2)cc1-c1ccccc1)C(=O)O [Example 215, {4-[2-(5-Bromopyrid-3-yl)ethenyl]-2-phenylbenzoyl}methionine Sodium Salt]
inhibition at 1 µM: 82%

Compound: CSCC[C@H](NC(=O)c1ccc(/C=C/c2cncc3ccccc23)cc1-c1ccccc1C)C(=O)O (stereo in doubt) [Example 491, N-[4-(2-Isoquinolin-4-ylethen-1-yl)-2-(2-methylphenyl)benzoyl]methionine Lithium Salt]
inhibition at 0.1 µM [2]: 94%

Compound: CC(C)C[C@H](NC(=O)c1ccc(NCc2c[nH]cn2)cc1-c1ccccc1)C(=O)O [Example 387, 4-[N-(1H-Imidazol-4-yl)methylamino-2-phenylbenzoyl]leucine]
inhibition at 10 µM [4]: > 50%

Compound: CSCC[C@H](NC(=O)c1ccc(CSc2cccnc2)cc1-c1ccccc1C)C(=O)O [Example 324]
% inhibition at 1 × 10^−6 M [1]: 98%

Compound: CSCC[C@H](NC(=O)c1cc(-c2cccs2)c(COc2cccnc2)cc1-c1ccccc1C)C(=O)O [Example 346]
inhibition at 1 µM [1]: 98%

Compound: CSCC[C@H](NC(=O)c1ccc(/C=C/c2cnc3ccccc3c2)cc1-c1ccccc1C)C(=O)O (stereo in doubt) [Example 487, N-[4-(2-Quinolin-3-ylethen-1-yl)-2-(2-methylphenyl)benzoyl]methionine Lithium Salt]
inhibition at 0.1 µM [2]: 81%

Compound: CSCC[C@H](NC(=O)c1ccc(COc2cccnc2)cc1-c1ccc(C)cc1)C(=O)O [Example 206]
% inhibition at 1 × 10^−6 M [1]: 67%

Compound: [4-(3-Pyridyloxymethyl)-2-phenylbenzoyl]cysteine Disodium Salt [Example 188]
% inhibition at 1 × 10^−6 M [1]: 40%

Compound: COc1ccncc1C=Cc1ccc(C(=O)N[C@@H](CCSC)C(=O)O)c(-c2ccccc2C)c1 [Example 1361, N-[4-(2-(4-Methoxypyridin-3-yl)ethenyl)-2-(2-methylphenyl)benzoyl]methionine Sodium Salt]
inhibition at 0.1 µM (Inhibition of farnesyltransferase, compound at 0.1 μM (Table 6, values marked *), read-out: % inhibition at 0.1 μM): 96%

Compound: CSCC[C@H](NC(=O)c1cc(CCc2ccccc2)c(COc2cccnc2)cc1-c1ccccc1C)C(=O)O [Example 922, N-[5-(2-Phenylethyl)-4-(pyrid-3-yloxymethyl)-2-(2-methylphenyl)benzoyl]methionine]
inhibition at 0.01 µM [3]: 96%

Compound: Cc1ccccc1-c1cc(COc2cccnc2)ccc1C(=O)N[C@@H](CCC(N)=O)C(=O)O [Example 313, (S)-2-N-[4-(3-Pyridyloxymethyl)-2-(2-methyl)phenylbenzoyl]amino-4-(aminocarbonyl)butanoic Acid]
% inhibition at 1 × 10^−6 M [1]: 94%

Compound: CSCCC(NC(=O)c1ccc(COc2cccnc2)cc1-c1ccccc1)C(=O)NS(=O)(=O)N1CCOCC1 (stereo not drawn) [Example 318, [4-(3-Pyridyloxymethyl)-2-phenylbenzoyl]methionine 1-Morpholinylsulfonimide]
% inhibition at 1 × 10^−6 M [1]: 98%

Compound: [4-(3-Pyridyloxymethyl)-2-(2-ethylphenyl)benzoyl]methionine Methyl Ester [Example 306]
% inhibition at 1 × 10^−6 M [1]: 99%

Compound: Cc1ccccc1-c1cc(COc2cccnc2)ccc1C(=O)N[C@@H](CCS(C)(=O)=O)C(=O)O [Example 311, N-[4-(3-Pyridyloxymethyl)-2-(2-methylphenyl)benzoyl]-2-amino-4-(methylsulfonyl)butanoic Acid]
inhibition at 1 µM [1]: 97%

Compound: {4-[2-(3-Pyridy)-2-hydroxyethyl]-2-phenylbenzoyl]methionine Sodium Salt and {4-[2-(3-Pyridy)-1-hydroxyethyl]-2-phenylbenzoyl}methionine Sodium Salt [Example 284]
% inhibition at 1 × 10^−6 M [1]: 83%

Compound: CSCC[C@H](NC(=O)c1ccc(COc2cccnc2)cc1-c1ccccc1C)C(=O)NS(C)(=O)=O [Example 252, [4-(3-Pyridyloxymethyl)-2-(2-methylphenyl)benzoyl]methionine Methylsulfonimide]
inhibition at 1 µM [1]: 98%

Compound: CSCC[C@H](NC(=O)c1cc(I)c(COc2cccnc2)cc1-c1ccccc1C)C(=O)O [Example 347]
inhibition at 1 µM: 95%

More lines, now with the values ahead:

inhibition at 1 µM [1]: 50%
Compound: COCC[C@H](NC(=O)c1ccc(COc2cccnc2)cc1-c1ccccc1)C(=O)O [Example 245]

inhibition at 0.01 µM [3]: 95%
Compound: CC[C@H](NC(=O)c1ccc(COc2cccnc2)cc1-c1ccccc1)C(=O)O [Example 760, (2S)-2-N-[4-(3-Pyridyloxymethyl)-2-phenylbenzoyl]aminobutanoic Acid]

inhibition at 1 µM [1]: 96%
Compound: CSCC[C@H](NC(=O)c1ccc(COc2cccnc2)cc1-c1ccccc1)C(=O)NS(C)(=O)=O [Example 250, [4-(3-Pyridyloxymethyl)-2-phenylbenzoyl]methionine Methylsulfonimide]

inhibition at 0.01 µM [3]: 66%
Compound: CSCC[C@H](NC(=O)c1ccc(COc2cccnc2)cc1-c1ccccc1)C(=O)NS(=O)(=O)N1CCN(C)CC1 [Example 401, [4-(3-Pyridyloxymethyl)-2-phenylbenzoyl]methionine 4-Methylpiperazinesulfonimide]

inhibition at 1 µM [1]: 95%
Compound: CSCC[C@H](NC(=O)c1ccc(COc2cccnc2)cc1-c1ccccc1)C(=O)O [Example 235, [4-(3-Pyridyloxymethyl)-2-phenylbenzoyl]methionine]

inhibition at 1 µM [1]: 54%
Compound: CSCC[C@H](NC(=O)c1ccc(CNc2ccncc2)cc1-c1ccccc1)C(=O)O [Example 161, [4-(4-Pyridylaminomethyl)-2-phenylbenzoyl]methionine]

inhibition at 1 µM [1]: 23%
Compound: COC(=O)[C@H](CCSC)NC(=O)c1ccc(CNc2cccnc2)cc1-c1ccccc1 [Example 226, [4-(Pyrid-3-ylaminomethyl)-2-phenylbenzoyl]methionine Methyl Ester Hydrochloride]

inhibition at 0.01 µM [3]: 98%
Compound: CSCC[C@@H](NC(=O)c1ccc(CNc2cccnc2)cc1-c1ccccc1C)C(=O)O (stereo in doubt) [Example 400, [4-(3-Pyridylaminomethyl)-2-(2-methylphenyl)benzoyl]methionine]

inhibition at 10 µM [4]: > 50%
Compound: CSCC[C@H](NC(=O)c1ccc(NCc2nc[nH]c2C)cc1-c1ccccc1)C(=O)O [Example 383, 4-[N-(5-Methyl-1-H-imidazole-4-yl)-methylene-(amino-2-phenylbenzol)]methionine]

inhibition at 1 µM [1]: 22%
Compound: COC(=O)[C@H](CCS(C)(=O)=O)NC(=O)c1ccc(CNc2cccnc2)cc1-c1ccccc1 (stereo in doubt) [Example 238, N-[4-(3-Pyridylaminomethyl)-2-phenylbenzoyl]-2-amino-4-(methylsulfonyl)butanoic Acid Methyl Ester]

inhibition at 1 µM [1]: 74%
Compound: COc1ccc(-c2cc(COc3cccnc3)ccc2C(=O)N[C@@H](CCSC)C(=O)O)cc1 [Example 209, [4-(3-Pyridyloxymethyl)-2-(4-methoxyphenyl)benzoyl]methionine]

inhibition at 1 µM [1]: 2%
Compound: COC(=O)[C@H](CCSC)N(C)C(=O)c1ccc(CNc2cccnc2)cc1-c1ccccc1 [Example 158, [4-(3-Pyridylaminomethylene)-2-phenylbenzoyl]-N-methylmetionine Methyl Ester]

Source: patent US6693123B2 (University of Pittsburgh, priority 1995, dated 2004)
